The term pIC50 denotes the IC50 on a negative log10 scale, so that one unit is a factor of ten. Low readings indicate a large IC50, high ones a small IC50.

The structures appear in SMILES notation. pIC50: −log10 of the molar value.

Drawing on patent publication US12011444B2, “N-substituted indole derivatives as PGE2 receptor modulators” (Idorsia Pharmaceuticals Ltd, priority 2015, dated 2024), this text covers IC50 for 25 compounds.

Assay [1] has as its target PTGER2 (EP2) (Homo sapiens (Human), UniProt P43116). In words: hEP2 b-arrestin assay (PathHunter HEK 293 PTGER2 b-arrestin cells). The format is cell-based. An excerpt:
(§1) The assay is using the PathHunter™ HEK 293 PTGER2 and PTGER4 b-arrestin cell lines from DiscoverX. The system is based on the Enzyme Fragment Complementation Technology. Two complementing fragments of the b-galactosidase enzyme are expressed within stably transfected cells. The larger portion of b-gal, termed EA for Enzyme Acceptor, is fused to the C-terminus of b-arrestin 2. The smaller fragment, termed ProLink™ tag, is fused to PTGER2 (EP2) or PTRGER4 (EP4) at the C-terminus. Upon activation, b-arrestin is recruited which forces the interaction of ProLink and EA, allowing complementation of the two fragments of b-gal and the formation of a functional enzyme which is capable of hydrolysing the substrate and generating a chemiluminescent signal.
(§2) 5000 cells per well of a 384 well plate (white with white bottom Greiner 781080) are seeded in 20 ul per well of GM. Plate is incubated at 37° C., 5% C02 for 24 hours.
Plate is pre-incubated 15 minutes at 37° C. Then five microliters of PGE2 (final conc. 5 μM) are transferred into the assay plate. Plate is incubated 120 minutes at 37° C.
Twelve μl of reagent are transferred to the assay plate and incubate for 1 hour at room temperature in the dark. Luminescence counts are read on a BMG Fluostar Optima reader according to manufacturer's instructions. For each compound concentration calculate of the percentage of activity compared to DMSO control value as average±STDEV. (each concentration is measured in duplicate)

The target of assay [2] is PTRGER4 (EP4) (Homo sapiens (Human), UniProt P35408). In words: hEP4 b-arrestin assay (PathHunter HEK 293 PTGER4 b-arrestin cells). The format is cell-based.
Excerpt: as §1, §2
Plate is pre-incubated 15 minutes at 37° C. Then five microliters of PGE2 (final conc. 20 nM) are transferred into the assay plate. Plate is incubated 120 minutes at 37° C.
Twelve μl of reagent are transferred to the assay plate and incubate for 1 hour at room temperature in the dark. Luminescence counts are read on a BMG Fluostar Optima reader according to manufacturer's instructions. For each compound concentration calculate of the percentage of activity compared to DMSO control value as average±STDEV.

The mark [3] stands for this setting: hEP2 b-arrestin assay (values without asterisk).
[4] abbreviates: hEP4 b-arrestin assay (values without asterisk).
Setting [5] is: antagonistic activity on hEP2, mean where measured multiple times.
Setting [6] is: antagonistic activity on hEP4, mean where measured multiple times.

Sequence of PTRGER4 (EP4) (P35408 whole entry, looked up): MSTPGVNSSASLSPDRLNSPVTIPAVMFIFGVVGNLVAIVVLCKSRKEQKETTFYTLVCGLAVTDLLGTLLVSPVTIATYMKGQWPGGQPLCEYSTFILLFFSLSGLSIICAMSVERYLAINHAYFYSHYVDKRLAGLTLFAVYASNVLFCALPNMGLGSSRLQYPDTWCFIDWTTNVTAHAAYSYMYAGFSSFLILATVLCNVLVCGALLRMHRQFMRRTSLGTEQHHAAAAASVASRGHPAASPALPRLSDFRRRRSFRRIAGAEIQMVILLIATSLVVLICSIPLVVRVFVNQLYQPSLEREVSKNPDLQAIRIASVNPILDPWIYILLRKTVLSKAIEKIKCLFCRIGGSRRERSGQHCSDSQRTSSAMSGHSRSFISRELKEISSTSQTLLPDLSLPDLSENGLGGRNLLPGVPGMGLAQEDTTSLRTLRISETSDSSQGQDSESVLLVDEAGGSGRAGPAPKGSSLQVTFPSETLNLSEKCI
Sequence of PTGER2 (EP2) (P43116 whole entry, the tested form may be a part): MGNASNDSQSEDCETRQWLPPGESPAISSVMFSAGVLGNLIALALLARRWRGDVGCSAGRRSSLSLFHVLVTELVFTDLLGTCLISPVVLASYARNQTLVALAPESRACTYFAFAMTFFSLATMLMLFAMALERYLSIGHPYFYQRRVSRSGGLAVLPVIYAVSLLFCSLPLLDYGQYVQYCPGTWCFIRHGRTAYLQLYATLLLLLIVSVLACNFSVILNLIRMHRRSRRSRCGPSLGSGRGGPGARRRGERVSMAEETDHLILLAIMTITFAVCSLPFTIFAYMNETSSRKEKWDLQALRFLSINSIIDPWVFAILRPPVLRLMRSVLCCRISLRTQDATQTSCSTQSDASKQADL

With `COc1ccc(F)c2c1cc(C#N)n2CCNc1cc(-c2ccc3[nH]c(=O)[nH]c3c2)ncn1` [Example 987, 7-Fluoro-1-{2-[6-(2-oxo-2,3-dihydro-1H-benzo[d]imidazol-5-yl)-pyrimidin-4-ylamino]-ethyl}-4-methoxy-1H-indole-2-carbonitrile], the results for the pIC50 in assay [1] (setting [3]) and in assay [2] (setting [4]) were 7.36 and 7.17, respectively.

In the case of `COc1ccc(Cl)c2c1cc(C)n2CCNc1cc(-c2cc(C)c(C(=O)O)c(C)c2)ncn1` [compound 287], the pIC50 in assay [1] (setting [5]) is 6.74; in assay [2] (setting [6]) it was 6.02.

With `COc1cc(F)c(F)c2c1cc(C)n2CCNc1cc(-c2ccc3cc[nH]c3c2)ncn1` [compound 92, [2-(6,7-Difluoro-4-methoxy-2-methyl-indol-1-yl)-ethyl]-[6-(1H-indol-6-yl)-pyrimidin-4-yl]-amine], the pIC50 was 7.32 in assay [1] (setting [5]) and 6.45 in assay [2] (setting [6]).

With `CCOc1cc(-c2cc(NCCn3c(C)cc4c(C)ccc(F)c43)ncn2)sc1C(=O)O` [compound 227], the pIC50 in assay [1] (setting [5]) is 8.70; in assay [2] (setting [6]), 7.66.

Turning to `COc1ccc(F)c2c1cc(C#N)n2CCNc1cc(-c2cc(OC(C)C)c(C(=O)O)s2)ncn1` [Example 802, 5-{6-[2-(2-Cyano-7-fluoro-4-methoxy-indol-1-yl)-ethylamino]-pyrimidin-4-yl}-3-isopropoxy-thiophene-2-carboxylic acid], the pIC50 in assay [1] (setting [3]) is 8.15; in assay [2] (setting [4]), 9.00.

As to `CCCc1cc(-c2cc(NCCn3c(C#N)cc4c(OC)ccc(F)c43)ncn2)cc(F)c1C(=O)O` [Example 939, 4-{6-[2-(2-Cyano-7-fluoro-4-methoxy-indol-1-yl)-ethylamino]-pyrimidin-4-yl}-2-fluoro-6-propyl-benzoic acid], the pIC50 in assay [1] (setting [3]) was 7.82; in assay [2] (setting [4]), 7.77.

Turning to `CCOc1cc(-c2cc(NCCn3c(C)cc4c(OC)ccc(F)c43)ncn2)ccc1NCC(=O)OC` [Example 1042, (2-Ethoxy-4-{6-[2-(7-fluoro-4-methoxy-2-methyl-indol-1-yl)-ethylamino]-pyrimidin-4-yl}-phenylamino)-acetic acid methyl ester], the pIC50 in assay [1] (setting [3]) is 7.96; in assay [2] (setting [4]) it was 7.24.

With `CCOc1cc(-c2cc(NCCn3c(C)cc4c(Cl)cc(Cl)c(F)c43)ncn2)sc1C(=O)O` [Example 868, 5-{6-[2-(4,6-Dichloro-7-fluoro-2-methyl-indol-1-yl)-ethylamino]-pyrimidin-4-yl}-3-ethoxy-thiophene-2-carboxylic acid], the pIC50 is 9.00 in assay [1] (setting [3]) and 8.15 in assay [2] (setting [4]).

In the case of `CCCCOc1cc(-c2cc(NCCn3c(C#N)cc4c(OC)ccc(F)c43)ncn2)cc(F)c1C(=O)O` [Example 905, 2-Butoxy-4-{6-[2-(2-cyano-7-fluoro-4-methoxy-indol-1-yl)-ethylamino]-pyrimidin-4-yl}-6-fluoro-benzoic acid], the results for the pIC50 in assay [1] (setting [3]) and in assay [2] (setting [4]) were 7.66 and 8.30, respectively.

For `Cc1ccc(F)c2c1cc(C)n2CCNc1cc(-c2ccc(-c3ncc[nH]3)cc2)ncn1` [compound 71], the results for the pIC50 in assay [1] (setting [5]) and in assay [2] (setting [6]) were 7.07 and 6.12, respectively.

Take `COc1cc(-c2cc(NCCn3c(C)cc4c(OC)cccc43)ncn2)cc(C)c1C(=O)O` [compound 254]: the pIC50 in assay [1] (setting [5]) was 7.19; in assay [2] (setting [6]), 6.00.

With `CCOc1cc(-c2cc(NCCn3c(C#N)cc4c(OC)ccc(F)c43)ncn2)sc1C(=O)N(C)C` [Example 1025, 5-{6-[2-(2-Cyano-7-fluoro-4-methoxy-indol-1-yl)-ethylamino]-pyrimidin-4-yl}-3-ethoxy-thiophene-2-carboxylic acid dimethylamide], the pIC50 was 7.48 in assay [1] (setting [3]) and 8.22 in assay [2] (setting [4]).

For `COc1cccc2c1cc(C)n2CCNc1cc(-c2ccc(-c3nnc[nH]3)cc2)ncn1` [compound 100, [2-(4-Methoxy-2-methyl-indol-1-yl)-ethyl]-{6-[4-(4H-[1,2,4]triazol-3-yl)-phenyl]-pyrimidin-4-yl}-amine], the pIC50 in assay [1] (setting [5]) was 7.96; in assay [2] (setting [6]), 6.69.

`CCOc1cc(-c2cc(NCCn3c(C)cc4c(OC)ccc(F)c43)ncn2)sc1CO` [Example 1031, (3-Ethoxy-5-{6-[2-(7-fluoro-4-methoxy-2-methyl-indol-1-yl)-ethylamino]-pyrimidin-4-yl}-thiophen-2-yl)methanol]: the figures for the pIC50 in assay [1] (setting [3]) and in assay [2] (setting [4]) were 8.52 and 7.72, respectively.

Regarding `CCOc1cc(-c2cc(NCCn3c(C)cc4c(Cl)c(F)cc(Cl)c43)ncn2)ccc1C(=O)O` [compound 351], the pIC50 in assay [1] (setting [5]) was 7.28; in assay [2] (setting [6]), 6.16.

With `COc1nc(-c2cc(NCCn3c(C)cc4c(OC)ccc(F)c43)ncn2)cs1` [compound 2], the pIC50 in assay [1] (setting [5]) is 6.57; in assay [2] (setting [6]), 6.60.

With `COc1ccc(F)c2c1cc(C#N)n2CCNc1cc(-c2cc(C(=O)O)cs2)ncn1` [Example 1008, 5-{6-[2-(2-Cyano-7-fluoro-4-methoxy-indol-1-yl)-ethylamino]-pyrimidin-4-yl}-thiophene-3-carboxylic acid], the figures for the pIC50 in assay [1] (setting [3]) and in assay [2] (setting [4]) were 6.63 and 6.29, respectively.

Consider `COc1cccc2c1cc(C)n2CCNc1cc(-c2ccc3[nH]cnc3c2)ncn1` [compound 8, [6-(1H-Benzoimidazol-5-yl)-pyrimidin-4-yl]-[2-(4-methoxy-2-methyl-indol-1-yl)-ethyl]-amine], for which the results for the pIC50 in assay [1] (setting [5]) and in assay [2] (setting [6]) were 8.05 and 6.48, respectively.

Regarding `CCOc1cc(-c2cc(NCCn3c(C)cc4c(C)ccc(F)c43)ncn2)cc(C)c1C(=O)O` [compound 347, 2-Ethoxy-4-{6-[2-(7-fluoro-2,4-dimethyl-indol-1-yl)-ethylamino]-pyrimidin-4-yl}-6-methyl-benzoic acid], the pIC50 in assay [1] (setting [5]) was 7.96; in assay [2] (setting [6]) it was 6.62.

Turning to `COc1cc(-c2cc(NCCn3c(C)cc4c(OC)ccc(F)c43)ncn2)ccc1C(=O)O` [compound 260], the pIC50 in assay [1] (setting [5]) was 7.55; in assay [2] (setting [6]), 6.27.

As to `CNc1cc(-c2cc(NCCn3c(C)cc4c(OC)ccc(F)c43)ncn2)ccc1C(=O)O` [compound 251], the figures for the pIC50 in assay [1] (setting [5]) and in assay [2] (setting [6]) were 8.22 and 7.43, respectively.

With `COc1cccc2c1cc(C)n2CCNc1cc(-c2ccc(NC(N)=O)cc2)ncn1` [compound 39, (4-{6-[2-(4-Methoxy-2-methyl-indol-1-yl)-ethylamino]-pyrimidin-4-yl}-phenyl)-urea], the values for the pIC50 in assay [1] (setting [5]) and in assay [2] (setting [6]) were 7.72 and 6.29, respectively.

Regarding `COc1ccc(F)c2c1cc(C#N)n2CCNc1cc(-c2ccc(OCC(=O)O)c(Cl)c2)ncn1` [Example 841, (2-Chloro-4-{6-[2-(2-cyano-7-fluoro-4-methoxy-indol-1-yl)-ethylamino]-pyrimidin-4-yl}-phenoxy)-acetic acid], the pIC50 in assay [1] (setting [3]) was 7.60; in assay [2] (setting [4]) it was 7.21.

`COc1ccc(F)c2c1cc(C)n2CCNc1cc(-c2ccc(CO)c(Cl)c2)ncn1` [compound 27, (2-Chloro-4-{6-[2-(7-fluoro-4-methoxy-2-methyl-indol-1-yl)-ethylamino]-pyrimidin-4-yl}-phenyl)-methanol]: the pIC50 was 8.00 in assay [1] (setting [5]) and 7.05 in assay [2] (setting [6]).

Take `COc1cccc2c1cc(C)n2CCNc1cc(-c2ccc(-c3noc(C)n3)cc2)ncn1` [compound 179, [2-(4-Methoxy-2-methyl-indol-1-yl)-ethyl]-{6-[4-(5-methyl-[1,2,4]oxadiazol-3-yl)-phenyl]-pyrimidin-4-yl}-amine]: the pIC50 is 7.70 in assay [1] (setting [5]) and 6.06 in assay [2] (setting [6]).
